According to ChEMBL document CHEMBL4145688, “Potent and Orally Bioavailable Inverse Agonists of RORγt Resulting from Structure-Based Design” (J Med Chem, 2018):
Converted amounts (≈) assume the structure as drawn.

What was measured:
[1] = Distribution coefficient between 1-octanol and aqueous phosphate buffer, logD of the compound in pH 7.4 buffer; format: physicochemical; details: 1-octanol/aqueous phosphate buffer
[2] = target: T1, Nuclear receptor ROR-gamma (Homo sapiens, UniProt P51449)
T1 sequence (P51449 whole entry): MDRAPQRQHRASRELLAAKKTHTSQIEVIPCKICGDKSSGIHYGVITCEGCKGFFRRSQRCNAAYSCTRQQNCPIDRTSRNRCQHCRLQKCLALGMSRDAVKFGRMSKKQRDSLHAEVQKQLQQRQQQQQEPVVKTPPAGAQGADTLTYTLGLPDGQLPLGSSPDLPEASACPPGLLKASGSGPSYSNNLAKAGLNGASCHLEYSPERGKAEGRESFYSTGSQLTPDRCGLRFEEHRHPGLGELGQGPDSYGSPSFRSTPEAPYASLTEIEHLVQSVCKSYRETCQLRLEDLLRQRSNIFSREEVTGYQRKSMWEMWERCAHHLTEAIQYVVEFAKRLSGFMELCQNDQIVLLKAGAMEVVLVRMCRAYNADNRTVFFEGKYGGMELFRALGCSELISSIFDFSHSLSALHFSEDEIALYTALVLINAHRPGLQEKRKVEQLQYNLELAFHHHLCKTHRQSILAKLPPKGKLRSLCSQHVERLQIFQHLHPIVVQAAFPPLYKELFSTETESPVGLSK
Description: Displacement of [3H]-2-(4-(ethylsulfonyl)phenyl)-N-(4-(2-(methoxymethyl)phenyl)thiophen-2-yl)acetamide from purified N-(HN)6-GST-TCS-human RORgammat (258 to 518 residues) incubated for 16 hrs by scintillation proximity assay

[3] = target: T1, Nuclear receptor ROR-gamma; remark: listed apart in the source
[4] = Intrinsic clearance in rat hepatocytes assessed per million cells; format: ADME, cell-based, Hepatocyte; details: read-out: CLH
[5] = target: T1, Nuclear receptor ROR-gamma; assay: Inverse agonist activity at RORgammat in human TH17 cells assessed as inhibition of IL17 release incubated for 4 days by HTRF assay; format: cell-based
[6] = Cytotoxicity in human Th17 cells assessed as effect on cell viability by cell-titer-Glo luminescent cell viability assay relative to control; format: cell-based; details: read-out: Efficacy
[7] = Efflux ratio of permeability in human Caco2 cells; format: ADME, cell-based; details: Caco-2
[8] = Permeability from basolateral to apical side in human Caco2 cells; format: ADME, cell-based; details: for Papp B→A: Caco-2, read-out: permeability
[9] = Permeability from apical to basolateral side in human Caco2 cells; format: ADME, cell-based; details: for Papp A→B: Caco-2, read-out: permeability
[10] = Unbound fraction in human plasma by equilibrium dialysis; format: ADME, cell-free
physchem = details: aqueous buffer, pH 7.4
Description: Solubility in aqueous buffer at pH 7.4

[11] = Permeability in human Caco2 cells assessed as drug recovery; format: ADME, cell-based; details: Caco-2, read-out: Drug recovery
[12] = Selectivity index, ratio of cytotoxicity in human Th17 cells to IC50 for inverse agonist activity at RORgammat in human TH17 cells assessed as inhibition of IL17 release; format: toxicity, cell-based
[13] = Oral absorption in Han Wistar rat at 1 mg/kg; format: ADME, organism-based; details: in vivo, read-out: Fabs
[14] = Half life in Han Wistar rat at 0.5 mg/kg, iv or 1 mg/kg, po; format: ADME, organism-based; details: in vivo
[15] = Volume of distribution at steady state in Han Wistar rat at 0.5 mg/kg, iv or 1 mg/kg, po; format: ADME, organism-based; details: in vivo, read-out: Vdss
hERG (KCNH2) = hERG (KCNH2) (Homo sapiens, UniProt Q12809); assay: Inhibition of human ERG at 11 uM
[16] = Oral bioavailability in Han Wistar rat at 1 mg/kg; format: ADME, organism-based; details: in vivo
[17] = Intrinsic clearance in human hepatocytes assessed per million cells; format: ADME, cell-based, Hepatocyte; details: read-out: CLH
[18] = Clearance in Han Wistar rat at 0.5 mg/kg, iv or 1 mg/kg, po; format: ADME, organism-based; details: in vivo

hERG (KCNH2), sequence (Q12809 whole entry): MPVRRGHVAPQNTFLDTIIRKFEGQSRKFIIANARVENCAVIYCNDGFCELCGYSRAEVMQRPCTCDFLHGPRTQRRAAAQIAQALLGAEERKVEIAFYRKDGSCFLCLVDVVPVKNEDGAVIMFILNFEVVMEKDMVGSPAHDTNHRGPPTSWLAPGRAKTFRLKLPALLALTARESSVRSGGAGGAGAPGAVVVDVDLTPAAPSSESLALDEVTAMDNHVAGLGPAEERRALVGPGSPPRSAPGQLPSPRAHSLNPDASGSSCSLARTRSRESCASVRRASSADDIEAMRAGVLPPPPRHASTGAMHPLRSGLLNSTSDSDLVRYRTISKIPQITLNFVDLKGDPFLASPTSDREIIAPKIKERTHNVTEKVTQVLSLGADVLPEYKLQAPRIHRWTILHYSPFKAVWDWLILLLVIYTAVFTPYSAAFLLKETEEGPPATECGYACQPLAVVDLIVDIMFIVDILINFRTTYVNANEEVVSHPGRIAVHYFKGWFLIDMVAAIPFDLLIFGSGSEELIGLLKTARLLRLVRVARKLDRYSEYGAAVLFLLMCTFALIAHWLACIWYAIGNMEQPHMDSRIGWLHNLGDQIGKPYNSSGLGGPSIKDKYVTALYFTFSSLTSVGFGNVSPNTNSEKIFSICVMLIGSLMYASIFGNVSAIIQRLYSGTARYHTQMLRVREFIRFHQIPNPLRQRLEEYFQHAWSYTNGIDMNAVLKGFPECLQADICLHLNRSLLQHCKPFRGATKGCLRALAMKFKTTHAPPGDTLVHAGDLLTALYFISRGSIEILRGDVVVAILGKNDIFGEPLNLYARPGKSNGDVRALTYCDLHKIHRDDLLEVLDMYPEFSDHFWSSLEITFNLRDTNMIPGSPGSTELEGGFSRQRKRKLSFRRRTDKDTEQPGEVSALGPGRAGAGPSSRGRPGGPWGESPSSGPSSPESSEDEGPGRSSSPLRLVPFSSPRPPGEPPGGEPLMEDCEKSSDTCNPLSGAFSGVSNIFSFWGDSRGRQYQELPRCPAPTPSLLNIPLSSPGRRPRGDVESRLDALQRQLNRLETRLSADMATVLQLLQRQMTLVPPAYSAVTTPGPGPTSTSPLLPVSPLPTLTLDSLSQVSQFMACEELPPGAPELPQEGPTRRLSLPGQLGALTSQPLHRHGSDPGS

Row | Compound | logD [1] | IC50 [2] [nM] | IC50 [3] [nM] | hepatocyte CLint [4] [µL/min/1e6 cells] | IC50 [5] [nM] | Emax [6] [%] | further results
1 | CCS(=O)(=O)c1ccc(CC(=O)Nc2cc(-c3cccc(Cl)c3)cs2)cc1 | > 4.1 | – | – | – | – | – | –
2 | CCOc1ncccc1-c1csc(NC(=O)Cc2ccc(S(=O)(=O)CC)cc2)c1 | ≥ 4 | 150 | 80 | 28 | – | – | –
3 | CCS(=O)(=O)c1ccc(CC(=O)Nc2cc(-c3cncnc3OC)cs2)cc1 | 2.8 | 1850 | 700 | – | – | – | –
4 | CCS(=O)(=O)c1ccc(CC(=O)Nc2nc(-c3cccc(Cl)c3)c(C(=O)c3ccccc3Cl)s2)cc1 | > 4.2 | 9 | 22 | – | 180 | – | –
5 | CCS(=O)(=O)c1ccc(CC(=O)Nc2cc(-c3cccnc3OCCc3ccccc3)cs2)cc1 | ≥ 4 | 29 | – | 125 | – | 70 | –
6 | CNS(=O)(=O)c1ccc(CC(=O)Nc2cc(-c3cc(C#N)cnc3OC)cs2)cc1 | 3.5 | 70 | 40 | – | > 3300 | – | efflux ratio [7]: 40; Papp B→A [8]: 26 ×10⁻⁶ cm/s; Papp A→B [9]: 0.65 ×10⁻⁶ cm/s; fraction unbound [10]: < 0.001; solubility (physchem): 0.34 µM (≈ 0.15 µg/mL); recovery [11]: 55%
7 | CCS(=O)(=O)c1ccc(CC(=O)Nc2cc(-c3cccnc3OCc3ccc(C#N)cc3)cs2)cc1 | ≥ 4 | 10 | 30 | 286 | 100 | 50 | –
8 | CCCOc1ncccc1-c1csc(NC(=O)Cc2ccc(S(=O)(=O)CC)cc2)c1 | ≥ 4 | 59 | – | 80 | – | 40 | –
9 | CC[S+]([O-])c1ccc(CC(=O)Nc2cc(-c3cc(C#N)cnc3OC)cs2)cc1 (stereo not drawn) | 3.4 | 1290 | 440 | – | – | – | –
10 | CCS(=O)(=O)c1ccc(C(NC(C)=O)C(=O)Nc2cc(-c3cc(C#N)cnc3OC)cs2)cc1 (stereo not drawn) | 3.3 | 14 | 67 | 4 | 990 | – | –
11 | CCS(=O)(=O)c1ccc(CC(=O)Nc2cc(-c3cccnc3OCc3ccc(C(=O)OC)cc3)cs2)cc1 | ≥ 4 | 14 | 21 | > 300 | 35 | – | selectivity ratio [12]: 100
12 | CCS(=O)(=O)c1ccc(CC(=O)Nc2cc(-c3cc(C#N)ccc3OC)cs2)cc1 | 3.6 | 20 | 30 | – | > 3300 | – | efflux ratio [7]: 7.6; Papp B→A [8]: 12 ×10⁻⁶ cm/s; Papp A→B [9]: 1.6 ×10⁻⁶ cm/s; fraction unbound [10]: 0.001; solubility (physchem): 0.43 µM (≈ 0.189 µg/mL); recovery [11]: 41%
13 | CCS(=O)(=O)c1ccc(C(N)C(=O)Nc2cc(-c3cc(C#N)cc(F)c3OC)cs2)cc1 (stereo not drawn) | 3.2 | 75 | 452 | 11 | 1690 | – | –
14 | CCS(=O)(=O)c1ccc(CC(=O)Nc2cc(-c3cccnc3OCc3cccc(C#N)c3)cs2)cc1 | ≥ 4 | 19 | – | 281 | – | 50 | –
15 | CCS(=O)(=O)c1ccc(CC(=O)Nc2cc(-c3cccnc3Oc3ccc(C#N)cc3)cs2)cc1 | 3.6 | 88 | – | 28 | 190 | – | –
16 | CCS(=O)(=O)c1ccc(C(NC(C)=O)C(=O)Nc2cc(-c3cccnc3OCc3ccccc3)cs2)cc1 (stereo not drawn) | > 4 | 7 | – | 24 | – | – | –
17 | CCS(=N)(=O)c1ccc(CC(=O)Nc2cc(-c3cc(C#N)ccc3OC)cs2)cc1 (stereo not drawn) | 2.8 | 340 | 120 | – | – | – | –

Row | Compound | logD [1] | IC50 [2] [nM] | IC50 [3] [nM] | hepatocyte CLint [4] [µL/min/1e6 cells] | IC50 [5] [nM] | Emax [6] [%] | further results
18 | CCS(=O)(=O)c1ccc(CC(=O)Nc2cc(-c3cccnc3OCc3ccccc3)cs2)cc1 | > 4 | 20 | – | 128 | – | 30 | fraction unbound [10]: 0.0003; solubility (physchem): 0.42 µM (≈ 0.207 µg/mL); selectivity ratio [12]: < 10
19 | CCS(=O)(=O)c1ccc(CC(=O)Nc2cc(-c3cccnc3OCC(F)(F)F)cs2)cc1 | – | 18 | 50 | 17 | 100 | – | –
20 | CCS(=O)(=O)c1ccc(CC(=O)Nc2cc(-c3ccc(C#N)cc3Cl)cs2)cc1 | 3.7 | 1160 | 780 | – | – | – | –
21 | CCS(=O)(=O)c1ccc(CC(=O)Nc2cc(-c3cc(C#N)cnc3OC)cs2)cc1 | 3.5 | 30 | 40 | – | > 3300 | – | permeability ([8]; Caco-2): 17.1 ×10⁻⁶ cm/s; permeability ([9]; Caco-2): 2.6 ×10⁻⁶ cm/s; fraction unbound [10]: 0.0009; recovery [11]: 44%
22 | CCS(=O)(=O)c1ccc(CC(=O)Nc2cc(-c3cccc(Cl)c3)c(C(=O)c3ccccc3Cl)s2)cc1 | 4.5 | 2 | 23 | – | 6 | 40 | efflux ratio [7]: > 324; Papp B→A [8]: 0.6 ×10⁻⁶ cm/s; Papp A→B [9]: < 0.001 ×10⁻⁶ cm/s; fraction unbound [10]: < 0.002; solubility (physchem): < 0.1 µM; recovery [11]: 52%
23 | CCS(=O)(=O)c1ccc(CC(=O)Nc2cc(-c3cccnc3Oc3ccccc3)cs2)cc1 | ≥ 4 | 46 | – | 196 | – | 50 | –
24 | CCS(=O)(=O)c1ccc(C(NC(C)=O)C(=O)Nc2cc(-c3cccnc3OCc3ccc(OC(F)(F)F)cc3)cs2)cc1 (stereo not drawn) | 4.6 | 6 | 75 | 9.1 | 32 | – | –
25 | CCS(=O)(=O)c1ccc(CC(=O)Nc2cc(-c3cc(C#N)cc(F)c3OC)cs2)cc1 | 3.9 | 20 | 30 | 11.3 | 700 | 60 | Fa [13]: 92%; efflux ratio [7]: 3.9; Papp B→A [8]: 7.1 ×10⁻⁶ cm/s; half-life [14]: 1.2 h; Vd [15]: 0.48 L/kg; Papp A→B [9]: 1.8 ×10⁻⁶ cm/s; fraction unbound [10]: 0.0017 to 0.002; solubility (physchem): 0.4 to 0.6 µM (≈ 0.183 to 0.275 µg/mL); inhibition at 11 µM (hERG (KCNH2)): 43%; bioavailability [16]: 85%; hepatocyte CLint [17]: 5.6 µL/min/1e6 cells; recovery [11]: 41%; clearance [18]: 5.5 mL/min/kg; selectivity ratio [12]: < 10
26 | CCS(=O)(=O)N1CCC(CC(=O)Nc2cc(-c3cc(C#N)cnc3OC)cs2)CC1 | 3.2 | 3250 | 3250 | – | – | – | –
27 | CCS(=O)(=O)c1ccc(C(NC(C)=O)C(=O)Nc2cc(-c3cccnc3Oc3ccc(C#N)cc3)cs2)cc1 (stereo not drawn) | 3.4 | 66 | 55 | 10.4 | 640 | – | –
28 | CCS(=O)(=O)c1ccc(CC(=O)Nc2cc(-c3cc(C#N)ccc3Cl)cs2)cc1 | 3.8 | 50 | 60 | – | – | – | –
29 | CCS(=O)(=O)c1ccc(C(NC(C)=O)C(=O)Nc2cc(-c3cc(C#N)cc(F)c3OC)cs2)cc1 (stereo not drawn) | 3.3 | – | – | – | – | – | Fa [13]: 19%; Papp B→A [8]: 18 ×10⁻⁶ cm/s; Vd [15]: 0.34 L/kg; Papp A→B [9]: 0.3 ×10⁻⁶ cm/s; solubility (physchem): 200 µM (≈ 103 µg/mL); bioavailability [16]: 18%
30 | CCS(=O)(=O)c1ccc(CC(=O)Nc2cc(-c3cccnc3OC/C=C/c3ccccc3)cs2)cc1 | ≥ 4 | 11 | 29 | 45 | 25 | 40 | selectivity ratio [12]: 100
31 | CCS(=O)(=O)c1ccc(CC(=O)Nc2cc(-c3cc(Cl)cc(C#N)c3)cs2)cc1 | > 4 | 50 | 90 | – | – | – | –
32 | CCS(=O)(=O)c1ccc(CC(=O)Nc2cc(-c3cccnc3OC)cs2)cc1 | 3.6 | 410 | 110 | 13 | – | – | –
33 | CCS(=O)(=O)c1ccc(CC(=O)Nc2cc(-c3cccnc3OCCCc3ccccc3)cs2)cc1 | ≥ 4 | 17 | – | 104 | > 3300 | 30 | –
